Assay results: patent publication US20240043427A1 (Gilead Sciences, Inc., priority 2020, published 2024)

How the values were obtained:
CD73 [1] = molecular target: T1, CD73 (Homo sapiens (Human), UniProt P21589); type: biochemical; details: 1 mM NaH2PO4 in enzyme buffer, CD73 0.3 nM, AMP 15 uM
CD73 [2] = molecular target: T1, CD73; experiment: MDA-MB-231 Cell Based CD73 Activity Assay (DMEM); details: MDA-MB-231-GFP cells, DMEM medium with 10% human plasma, 200 uM AMP

T1 sequence (P21589 27-574): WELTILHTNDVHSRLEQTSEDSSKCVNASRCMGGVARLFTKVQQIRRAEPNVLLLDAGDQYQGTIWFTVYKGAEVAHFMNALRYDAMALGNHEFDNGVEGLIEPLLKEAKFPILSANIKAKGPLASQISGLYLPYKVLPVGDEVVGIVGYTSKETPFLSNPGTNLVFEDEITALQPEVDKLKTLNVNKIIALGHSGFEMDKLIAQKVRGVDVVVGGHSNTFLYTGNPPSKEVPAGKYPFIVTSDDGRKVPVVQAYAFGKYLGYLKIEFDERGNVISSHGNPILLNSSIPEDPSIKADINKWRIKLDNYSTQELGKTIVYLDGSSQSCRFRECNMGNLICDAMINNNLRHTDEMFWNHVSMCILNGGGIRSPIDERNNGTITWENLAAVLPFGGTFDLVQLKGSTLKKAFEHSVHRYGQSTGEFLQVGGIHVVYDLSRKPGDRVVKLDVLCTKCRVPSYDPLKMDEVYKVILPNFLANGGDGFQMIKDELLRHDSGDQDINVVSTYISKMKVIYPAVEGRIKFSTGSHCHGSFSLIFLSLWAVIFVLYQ

Row | IC50 (CD73 [1]) | EC50 (CD73 [2]) | Compound
1 | 0.51 nM | 105 nM | O=C(OCC(F)(F)F)OCC(F)(F)COc1cc(-c2c[nH]c(=O)[nH]c2=O)nn2ccnc12 [Example 696, 3-((6-(2,4-dioxo-1,2,3,4-tetrahydropyrimidin-5-yl)imidazo[1,2-b]pyridazin-8-yl)oxy)-2,2-difluoropropyl (2,2,2-trifluoroethyl) carbonate]
2 | 0.65 nM | 0.27 nM | O=c1[nH]cc(-c2cc([C@H]3C[C@@H]3c3ccc4c(F)nn(CC(F)(F)F)c4c3)c3ncc(F)n3n2)c(=O)[nH]1 [Example 697, 5-(3-fluoro-8-((1S,2S)-2-(3-fluoro-1-(2,2,2-trifluoroethyl)-1H-indazol-6-yl)cyclopropyl)imidazo[1,2-b]pyridazin-6-yl)pyrimidine-2,4(1H,3H)-dione]
3 | 3.84 nM | 0.81 nM | CC1(C)C(=O)N(CC(F)(F)F)c2cc([C@H]3C[C@@H]3c3cc(-c4c[nH]c(=O)[nH]c4=O)nn4ccnc34)cnc21 [Example 698, 5-(8-((1S,2S)-2-(3,3-dimethyl-2-oxo-1-(2,2,2-trifluoroethyl)-2,3-dihydro-1H-pyrrolo[3,2-b]pyridin-6-yl)cyclopropyl)imidazo[1,2-b]pyridazin-6-yl)pyrimidine-2,4(1H,3H)-dione]
4 | 3.15 nM | 0.56 nM | CC1(C)C(=O)N(CC(F)(F)F)c2cc([C@H]3C[C@@H]3c3cc(-c4c[nH]c(=O)[nH]c4=O)nn4ccnc34)cnc21 [Example 699, 5-(8-((1S,2S)-2-(3,3-dimethyl-2-oxo-1-(2,2,2-trifluoroethyl)-2,3-dihydro-1H-pyrrolo[3,2-b]pyridin-6-yl)cyclopropyl)imidazo[1,2-b]pyridazin-6-yl)pyrimidine-2,4(1H,3H)-dione]
5 | 4.37 nM | 0.54 nM | CC1(C)C(=O)N(CC(F)(F)F)c2cc([C@H]3C[C@@H]3c3cc(-c4c[nH]c(=O)[nH]c4=O)nn4ccnc34)ncc21 [Example 700, 5-(8-((1S,2S)-2-(3,3-dimethyl-2-oxo-1-(2,2,2-trifluoroethyl)-2,3-dihydro-1H-pyrrolo[3,2-c]pyridin-6-yl)cyclopropyl)imidazo[1,2-b]pyridazin-6-yl)pyrimidine-2,4(1H,3H)-dione]
6 | 3.04 nM | 2.56 nM | O=c1[nH]cc(-c2cc([C@H]3C[C@@H]3c3ccc4c(C(F)(F)F)cn(CC(F)(F)F)c4n3)c3nccn3n2)c(=O)[nH]1 [Example 701, 5-(8-((1S,2S)-2-(1-(2,2,2-trifluoroethyl)-3-(trifluoromethyl)-1H-pyrrolo[2,3-b]pyridin-6-yl)cyclopropyl)imidazo[1,2-b]pyridazin-6-yl)pyrimidine-2,4(1H,3H)-dione]
7 | 1.7 nM | 0.26 nM | CC1(C)C(=O)N(CC(F)(F)F)c2cc([C@H]3C[C@@H]3c3cc(-c4c[nH]c(=O)[nH]c4=O)nn4c(F)cnc34)ccc21 [Example 702, 5-(8-((1S,2S)-2-(3,3-dimethyl-2-oxo-1-(2,2,2-trifluoroethyl)indolin-6-yl)cyclopropyl)-3-fluoroimidazo[1,2-b]pyridazin-6-yl)pyrimidine-2,4(1H,3H)-dione]
8 | 1.24 nM | 0.14 nM | CC1(C)C(=O)N(CC(F)(F)F)c2cc([C@H]3C[C@@H]3c3cc(-c4c[nH]c(=O)[nH]c4=O)nn4ccnc34)ccc21 [Example 703, 5-(8-((1S,2S)-2-(3,3-dimethyl-2-oxo-1-(2,2,2-trifluoroethyl)indolin-6-yl)cyclopropyl)imidazo[1,2-b]pyridazin-6-yl)pyrimidine-2,4(1H,3H)-dione]
9 | 0.73 nM | 0.36 nM | O=c1[nH]cc(-c2cc([C@H]3C[C@@H]3c3ccc4ccn(CC(F)(F)F)c4n3)c3nccn3n2)c(=O)[nH]1 [Example 704, 5-(8-((1S,2S)-2-(1-(2,2,2-trifluoroethyl)-1H-pyrrolo[2,3-b]pyridin-6-yl)cyclopropyl)imidazo[1,2-b]pyridazin-6-yl)pyrimidine-2,4(1H,3H)-dione]
10 | 0.4 nM | 0.07 nM | O=c1[nH]cc(-c2cc([C@H]3C[C@@H]3c3cc4c(ccn4CC(F)(F)F)cn3)c3nccn3n2)c(=O)[nH]1 [Example 705, 5-(8-((1S,2S)-2-(1-(2,2,2-trifluoroethyl)-1H-pyrrolo[3,2-c]pyridin-6-yl)cyclopropyl)imidazo[1,2-b]pyridazin-6-yl)pyrimidine-2,4(1H,3H)-dione]
11 | 0.33 nM | 0.15 nM | O=c1[nH]cc(-c2cc([C@H]3C[C@@H]3c3cc4c(cn3)c(F)cn4CC(F)(F)F)c3nccn3n2)c(=O)[nH]1 [Example 706, 5-(8-((1S,2S)-2-(3-fluoro-1-(2,2,2-trifluoroethyl)-1H-pyrrolo[3,2-c]pyridin-6-yl)cyclopropyl)imidazo[1,2-b]pyridazin-6-yl)pyrimidine-2,4(1H,3H)-dione]
12 | 2.65 nM | 8.88 nM | O=c1[nH]cc(-c2cc([C@H]3C[C@@H]3c3ccc4ccn(CC(F)(F)F)c(=O)c4c3)c3nccn3n2)c(=O)[nH]1 [Example 707, 5-(8-((1S,2S)-2-(1-oxo-2-(2,2,2-trifluoroethyl)-1,2-dihydroisoquinolin-7-yl)cyclopropyl)imidazo[1,2-b]pyridazin-6-yl)pyrimidine-2,4(1H,3H)-dione]
13 | 3.3 nM | 6.21 nM | O=c1[nH]cc(-c2cc([C@H]3C[C@@H]3c3ccc4c(c3)c(=O)ccn4CC(F)(F)F)c3nccn3n2)c(=O)[nH]1 [Example 708, 5-(8-((1S,2S)-2-(4-oxo-1-(2,2,2-trifluoroethyl)-1,4-dihydroquinolin-6-yl)cyclopropyl)imidazo[1,2-b]pyridazin-6-yl)pyrimidine-2,4(1H,3H)-dione]
14 | 1.24 nM | 0.4 nM | O=c1[nH]cc(-c2cc([C@H]3C[C@@H]3c3ccc4nccc(OCC(F)(F)F)c4c3)c3nccn3n2)c(=O)[nH]1 [Example 709, 5-(8-((1S,2S)-2-(4-(2,2,2-trifluoroethoxy)quinolin-6-yl)cyclopropyl)imidazo[1,2-b]pyridazin-6-yl)pyrimidine-2,4(1H,3H)-dione]
15 | 1.43 nM | 4.06 nM | O=c1[nH]cc(-c2cc([C@H]3C[C@@H]3c3ccc4cncc(OCC(F)(F)F)c4c3)c3nccn3n2)c(=O)[nH]1 [Example 710, 5-(8-((1S,2S)-2-(4-(2,2,2-trifluoroethoxy)isoquinolin-6-yl)cyclopropyl)imidazo[1,2-b]pyridazin-6-yl)pyrimidine-2,4(1H,3H)-dione]
16 | 0.7 nM | 0.19 nM | Cc1cc([C@H]2C[C@@H]2c2cc(-c3c[nH]c(=O)[nH]c3=O)nn3ccnc23)cc2c1cnn2CC(F)(F)F [Example 714, 5-(8-((1S,2S)-2-(4-methyl-1-(2,2,2-trifluoroethyl)-1H-indazol-6-yl)cyclopropyl)imidazo[1,2-b]pyridazin-6-yl)pyrimidine-2,4(1H,3H)-dione]
17 | 1.42 nM | 0.32 nM | O=C1N(CC(F)(F)F)c2cc([C@H]3C[C@@H]3c3cc(-c4c[nH]c(=O)[nH]c4=O)nc4ccnn34)ccc2C12CC2 [Example 715, 5-(7-((1S,2S)-2-(2′-oxo-1′-(2,2,2-trifluoroethyl)spiro[cyclopropane-1,3′-indolin]-6′-yl)cyclopropyl)pyrazolo[1,5-a]pyrimidin-5-yl)pyrimidine-2,4(1H,3H)-dione]
18 | 0.35 nM | 0.28 nM | O=c1[nH]cc(-c2cc([C@H]3C[C@@H]3c3ccc4cnn(CC(F)(F)F)c4c3)n3ncc(F)c3n2)c(=O)[nH]1 [Example 716, 5-(3-fluoro-7-((1S,2S)-2-(1-(2,2,2-trifluoroethyl)-1H-indazol-6-yl)cyclopropyl)pyrazolo[1,5-a]pyrimidin-5-yl)pyrimidine-2,4(1H,3H)-dione]
19 | 0.69 nM | 0.26 nM | O=c1[nH]cc(-c2cc([C@H]3C[C@@H]3c3cnc4c(F)nn(CC(F)(F)F)c4c3)c3nccn3n2)c(=O)[nH]1 [Example 717, 5-[8-[(1S,2S)-2-[3-fluoro-1-(2,2,2-trifluoroethyl)pyrazolo[4,3-b]pyridin-6-yl]cyclopropyl]imidazo[1,2-b]pyridazin-6-yl]-1H-pyrimidine-2,4-dione]
20 | 0.51 nM | 0.46 nM | O=c1[nH]cc(-c2cc([C@H]3C[C@@H]3c3cnc4c(F)nn(CC(F)(F)F)c4c3)c3ncc(Cl)n3n2)c(=O)[nH]1 [Example 719, 5-[3-chloro-8-[(1S,2S)-2-[3-fluoro-1-(2,2,2-trifluoroethyl)pyrazolo[4,3-b]pyridin-6-yl]cyclopropyl]imidazo[1,2-b]pyridazin-6-yl]-1H-pyrimidine-2,4-dione]
21 | 0.77 nM | 0.32 nM | O=c1[nH]cc(-c2cc([C@H]3C[C@@H]3c3ccc4c(F)nn(CC(F)(F)F)c4c3)c3ncc(Cl)n3n2)c(=O)[nH]1 [Example 721, 5-[3-chloro-8-[(1S,2S)-2-[3-fluoro-1-(2,2,2-trifluoroethyl)indazol-6-yl]cyclopropyl]imidazo[1,2-b]pyridazin-6-yl]-1H-pyrimidine-2,4-dione]
22 | 1.1 nM | 0.58 nM | CC1(C)C(=O)N(CC(F)(F)F)c2cc([C@H]3C[C@@H]3c3cc(-c4c[nH]c(=O)[nH]c4=O)nn4c(Cl)cnc34)ccc21 [Example 722, 5-[3-chloro-8-[(1S,2S)-2-[3,3-dimethyl-2-oxo-1-(2,2,2-trifluoroethyl)indolin-6-yl]cyclopropyl]imidazo[1,2-b]pyridazin-6-yl]-1H-pyrimidine-2,4-dione]
23 | 2.75 nM | 1.04 nM | CC1(C)C(=O)N(CC(F)(F)F)c2cc([C@H]3C[C@@H]3c3cc(-c4c[nH]c(=O)[nH]c4=O)nn4c(F)cnc34)cnc21 [Example 723, 5-[8-[(1S,2S)-2-[3,3-dimethyl-2-oxo-1-(2,2,2-trifluoroethyl)pyrrolo[3,2-b]pyridin-6-yl]cyclopropyl]-3-fluoro-imidazo[1,2-b]pyridazin-6-yl]-1H-pyrimidine-2,4-dione]
24 | 0.62 nM | 0.69 nM | O=c1[nH]cc(-c2cc(N3C[C@H](Oc4ccc(F)c(C(F)F)c4)C(F)(F)C3)c3nccn3n2)c(=O)[nH]1 [Example 745, (S)-5-(8-(4-(3-(difluoromethyl)-4-fluorophenoxy)-3,3-difluoropyrrolidin-1-yl)imidazo[1,2-b]pyridazin-6-yl)pyrimidine-2,4(1H,3H)-dione]
